Assay results published in patent publication US12214036B2, “Combination therapy comprising AXL/MER and PD-1/PD-L1 inhibitors” (Incyte Corporation, priority 2020, dated 2025).

Key:
CTG-1861 tumors = assay: PDX model CTG-1861 (gastrointestinal stromal tumor); type: in vivo; conditions: athymic nude mice
From the text: MBT-2 cells were obtained from the Japanese Collection of Research Bioresources Cell Bank and were maintained in DMEM supplemented with 10% FBS. MC38 cells were obtained from the NCI. 4T1 cells were obtained from ATCC and maintained in RPMI media supplemented with 10% FBS. For MBT-2 experiments, 5×10^5 MBT-2 cells were inoculated subcutaneously into the right hind flank of 6- to 8-week-old C3H mice or athymic nude mice (Charles River Laboratories, Wilmington, Mass.). For MC38 studies, 12-week old female C57BL/6 mice were inoculated with brei of MC38 tumors (in-vivo passage 6) into the right hind flank. For 4T1 studies, 7.5×10^5 4 T1 cells were inoculated subcutaneously into the right hind flank of 6- to 8-week-old female BALB/c mice or athymic nude mice (Charles River Laboratories). […] Mice were monitored for tumor growth and overt tolerability over the course of the experiment. […] Tumor volume was calculated using the formula (L×W^2)/2, where L and W refer to the length and width dimensions, respectively. Tumor growth inhibition (TGI) was calculated using the formula (1−(VT/VC))×100, where VT is the tumor volume of the treatment group on the last day of treatment, and VC is the tumor volume of the control group on the last day of treatment. […]
The activity of Compound 1 in sarcoma PDX models was evaluated as described in Example H for PDX models. […] Three mice per group were analyzed. […]

TYRO3 = target: T1, TYRO3 (Homo sapiens, UniProt Q06418); assay: TR-FRET kinase assay, TYRO3; type: biochemical
T1 construct: recombinant phosphorylated forms of the kinase domains for AXL, MER and TYRO3; purchased Life Technologies PR7480A
T1 sequence (Q06418 518-790 limits assumed): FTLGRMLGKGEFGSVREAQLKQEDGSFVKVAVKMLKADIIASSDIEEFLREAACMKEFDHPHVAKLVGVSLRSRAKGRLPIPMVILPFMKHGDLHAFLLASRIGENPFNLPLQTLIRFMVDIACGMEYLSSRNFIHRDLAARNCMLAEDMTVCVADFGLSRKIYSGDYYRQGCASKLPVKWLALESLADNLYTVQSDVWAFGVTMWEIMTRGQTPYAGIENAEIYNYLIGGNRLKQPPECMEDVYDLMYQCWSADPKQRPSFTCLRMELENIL
Method: The biochemical potency of Compound 1 to inhibit the enzymatic activity of TAM family members was investigated by TR-FRET assays using recombinant phosphorylated forms of the kinase domains for AXL, MER and TYRO3.
Phospho-AXL (pAXL), cMER and Tyro3 kinase activities were measured by time-resolved fluorescence energy transfer (TR-FRET) assays. Autophosphorylation of AXL was carried out before the kinase assay by incubating the recombinant AXL protein (ThermoFisher Scientific; #PV4275) in buffer containing 50 mM Tris, pH 7.5, 0.2 mg/mL AXL, 5 mM ATP, 20 mM MgCl2 and 2 mM dithiothreitol (DTT) at room temperature for 1 hour. The kinase assay buffer contained 50 mM HEPES, pH 7.5, 10 mM MgCl2, 1 mM EGTA, 0.01% NP-40 and 2 mM DTT. Enzyme solutions of 0.69 nM phospho-AXL, or 0.088 nM cMER (Carna Biosciences, Kobe, Japan; #08-108) or 0.137 nM TYRO3 (Life Technologies, PR7480A) were prepared in assay buffer. […] The plate was incubated for 30 minutes at room temperature, and homogenous time resolved fluorescence (HTRF) signal was measured on a PheraStar FS plate reader (BMG Labtech, Ortenberg, Germany). Percent inhibition was calculated for each concentration, and half maximal inhibitory concentration (IC50) value was generated from curve fitting with GraphPad Prism software (San Diego, Calif.).

SMILES: CC(C)C(=O)N1CCC(c2cc(-c3ccc(NC(=O)c4cn(C(C)C)c(=O)n(-c5ccccn5)c4=O)cc3)c3c(N)ncnn23)CC1 [Compound 1, N-(4-(4-Amino-7-(1-isobutyrylpiperidin-4-yl)pyrrolo[1,2-f][1,2,4]triazin-5-yl)phenyl)-1-isopropyl-2,4-dioxo-3-(pyridin-2-yl)-1,2,3,4-tetrahydropyrimidine-5-carboxamide]
- TGI (%) (CTG-1861 tumors): 74%
- IC50 (TYRO3; average from multiple lots, n=25, read-out: IC50 against TYRO3): 101 ± 27 nM
- selectivity over TYRO3 (TYRO3; biochemical): approximately 30 fold
